Reference: ChEMBL document CHEMBL1201862, “PubChem BioAssay data set” (2004)
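Five compound concentrations were applied to cells in 96-well plates for 48 hours; endpoints were derived by simple linear interpolation of the resulting dose-response curve. Here, GI50 denotes the concentration required for 50% inhibition of growth.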 Active and inactive are the calls of the source. Cut-off read from the data, not from the text of the source: active = GI50 up to about 1.1 µM and inactive = higher.

Columns and labels:
Experiment in all cases: DTP human tumour cell line panel, 48 h
UACC-257 = tested on: UACC-257
SNB-19 = tested on: SNB-19
MDA-MB-435 = tested on: MDA-MB-435
NCI/ADR-RES = tested on: NCI/ADR-RES
RPMI-8226 = tested on: RPMI-8226
SN12C = tested on: SN12C
KM12 = tested on: KM12
A549 = tested on: A549
786-0 = tested on: 786-0
NCI-H23 = tested on: NCI-H23
LOX IMVI = tested on: LOX IMVI
MDA-MB-231 = tested on: MDA-MB-231
SK-MEL-2 = tested on: SK-MEL-2
M14 = tested on: M14
HOP-62 = tested on: HOP-62
OVCAR-4 = tested on: OVCAR-4
HCT-15 = tested on: HCT-15
CCRF-CEM = tested on: CCRF-CEM
NCI-H522 = tested on: NCI-H522
DU-145 = tested on: DU-145

Row | SMILES | GI50 (UACC-257) | GI50 (SNB-19) | GI50 (MDA-MB-435) | GI50 (NCI/ADR-RES) | GI50 (RPMI-8226) | GI50 (SN12C) | GI50 (KM12) | GI50 (A549) | GI50 (786-0) | GI50 (NCI-H23) | GI50 (LOX IMVI) | GI50 (MDA-MB-231) | GI50 (SK-MEL-2) | GI50 (M14) | GI50 (HOP-62) | GI50 (OVCAR-4) | GI50 (HCT-15) [µM] | GI50 (CCRF-CEM) | GI50 (NCI-H522) | GI50 (DU-145)
1 | CC1(C)C2CCC1(C)C(N/C(=C(/C(Cl)=C(Cl)Cl)[N+](=O)[O-])n1nnc3ccccc31)C2 (stereo not drawn) | 38.6 µM (inactive) | 25.1 µM (inactive) | 21.4 µM (inactive) | 27.5 µM (inactive) | 25.7 µM (inactive) | 41.8 µM (inactive) | 21.8 µM (inactive) | 33.7 µM (inactive) | 41.1 µM (inactive) | 22.4 µM (inactive) | 33.2 µM (inactive) | 22.5 µM (inactive) | 22.9 µM (inactive) | 37.7 µM (inactive) | 24.9 µM (inactive) | 24.1 µM (inactive) | 27.7 | 21 µM (inactive) | – | –
2 | COC(=O)C1=C(C(=O)NNc2ccccc2)N(c2cccnc2Cl)C(c2ccccc2)=CC1c1ccccc1 (stereo not drawn) | 41.4 µM (inactive) | > 100 µM (inactive) | 29.5 µM (inactive) | – | 14.1 µM (inactive) | > 100 µM (inactive) | 29.6 µM (inactive) | 40.9 µM (inactive) | 86.3 µM (inactive) | 73.8 µM (inactive) | 30.5 µM (inactive) | 56.1 µM (inactive) | 22.4 µM (inactive) | 33.3 µM (inactive) | > 100 µM (inactive) | > 100 µM (inactive) | 39.3 | 27.7 µM (inactive) | > 100 µM (inactive) | 80.9 µM (inactive)
3 | N=C(N)C1CN(CC=O)C(=O)NC1=O (stereo not drawn) | > 100 µM (inactive) | > 100 µM (inactive) | > 100 µM (inactive) | > 100 µM (inactive) | > 100 µM (inactive) | > 100 µM (inactive) | – | > 100 µM (inactive) | > 100 µM (inactive) | > 100 µM (inactive) | > 100 µM (inactive) | > 100 µM (inactive) | – | > 100 µM (inactive) | > 100 µM (inactive) | > 100 µM (inactive) | > 100 | > 100 µM (inactive) | – | > 100 µM (inactive)
4 | CC12CCC(CC1)C(C)(C)O2 [EUCALYPTOL] | 16.9 µM (inactive) | – | – | 45.2 µM (inactive) | 23.4 µM (inactive) | 7.08 µM (inactive) | 33.9 µM (inactive) | – | > 100 µM (inactive) | 16.9 µM (inactive) | 7.43 µM (inactive) | – | 47.3 µM (inactive) | > 100 µM (inactive) | 12.6 µM (inactive) | 61.1 µM (inactive) | 12.1 | – | 10.1 µM (inactive) | –
